The values that follow come from patent US20110082130A1 (LIGAND PHARMACEUTICALS, INC., priority 2006, published 2011).

The first test deals with T1, chimeric human H3 receptor (Homo sapiens, UniProt Q9Y5N1).
T1 construct: made in house; host or cells: Sf9 insect cells (baculovirus); P2 membrane preparation
T1 sequence (Q9Y5N1 with tags, fused parts or gaps): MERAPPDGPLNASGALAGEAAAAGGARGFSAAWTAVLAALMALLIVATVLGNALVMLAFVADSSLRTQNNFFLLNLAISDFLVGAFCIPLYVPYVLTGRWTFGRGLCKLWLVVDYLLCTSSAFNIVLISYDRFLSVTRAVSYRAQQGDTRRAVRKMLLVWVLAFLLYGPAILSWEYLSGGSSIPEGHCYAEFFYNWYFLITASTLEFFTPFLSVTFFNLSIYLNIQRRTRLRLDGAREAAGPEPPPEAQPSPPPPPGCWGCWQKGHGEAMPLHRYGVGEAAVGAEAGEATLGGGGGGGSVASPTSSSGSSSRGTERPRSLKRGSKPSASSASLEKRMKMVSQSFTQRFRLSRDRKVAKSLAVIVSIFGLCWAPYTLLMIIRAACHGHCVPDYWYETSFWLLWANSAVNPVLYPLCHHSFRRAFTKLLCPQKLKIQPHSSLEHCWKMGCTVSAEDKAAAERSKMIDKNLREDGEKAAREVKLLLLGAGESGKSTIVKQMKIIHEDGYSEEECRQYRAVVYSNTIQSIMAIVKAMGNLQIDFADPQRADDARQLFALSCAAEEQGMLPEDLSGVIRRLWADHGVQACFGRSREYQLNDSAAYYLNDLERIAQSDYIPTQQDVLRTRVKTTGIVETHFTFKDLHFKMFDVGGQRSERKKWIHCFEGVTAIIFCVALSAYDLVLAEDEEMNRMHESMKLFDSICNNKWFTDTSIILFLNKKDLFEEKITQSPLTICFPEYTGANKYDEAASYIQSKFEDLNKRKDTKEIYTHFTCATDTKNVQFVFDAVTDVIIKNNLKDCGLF
Put plainly: Chimeric human H3 receptor GTP binding assay (agonist-stimulated GTP-gamma35S binding, Example 7). The note with it: Table I; P2 membranes of Sf9 cells, 1 μM histamine as agonist, Ki from IC50 by Cheng-Prusoff. The test is classed as biochemical. The text has this:
This Example illustrates a representative assay for evaluating agonist-stimulated GTP-gamma^35S binding (“GTP binding”) activity. […] This agonist-stimulated GTP binding activity can also be used to detect partial agonism mediated by antagonist compounds. A compound analyzed in this assay is referred to herein as a “test compound.”
Four independent baculoviral stocks (one directing the expression of the chimeric human H3 receptor and three directing the expression of each of the three subunits of a heterotrimeric G-protein) are used to infect a culture of Sf9 cells as described above. P2 membranes are prepared as described above, and agonist-stimulated GTP binding on the P2 membranes is assessed using histamine (Sigma Chemical Co., St. Louis, Mo.) as agonist in order to ascertain that the receptor/G-protein-alpha-beta-gamma combination(s) yield a functional response as measured by GTP binding. P2 membranes are resuspended by Dounce homogenization (tight pestle) in GTP binding assay buffer (50 mM Tris pH 7.4, 120 mM NaCl, 5 mM MgCl2, 2 mM EGTA, 1 mg/ml BSA, 0.2 mg/ml bacitracin, 0.02 mg/ml aprotinin, 0.01 mg/ml saponin, 10 μM GDP) and added to assay tubes at a concentration of 35 μg protein/reaction tube. After adding increasing doses of histamine at concentrations ranging from 10^−12 M to 10^−5 M, reactions are initiated by the addition of […] GTP-gamma^35S (PERKIN ELMER; Boston, Mass.) with a final assay volume of 0.20 ml. In competition experiments, non-radiolabeled test compounds are added to separate reactions at concentrations ranging from 10^−10 M to 10^−6 M along with 1 μM histamine to yield a final volume of 0.20 ml.
Neutral antagonists are antagonists that are substantially free of inherent agonist activity, and include those test compounds that reduce the histamine-stimulated GTP binding activity towards, but not below, baseline levels. In contrast, in the absence of added histamine, inverse agonists reduce the GTP binding activity of the receptor-containing membranes below baseline.
After a 60-min incubation at room temperature, reactions are terminated by vacuum filtration over WHATMAN GF/C filters (pre-soaked in wash buffer, 0.1% BSA) followed by washing with ice-cold wash buffer (50 mM Tris pH 7.4, 120 mM NaCl). The amount of receptor-bound (and thereby membrane-bound) GTP-gamma^35S is determined by measuring the filter-bound radioactivity, preferably by liquid scintillation spectrometry of the washed filters. Non-specific binding is determined in parallel assays including 10 μM unlabeled GTP-gammaS and typically represents less than 5 percent of total binding. Data is expressed as percent above basal (baseline). The results of GTP binding experiments are analyzed using SIGMAPLOT software (SPSS Inc., Chicago, Ill.). IC50 values are calculated by non-linear regression analysis of dose-response curves using Kaleidograph (Synergy Software, Reading, Pa.).
Alternatively the data is analyzed as follows. First, the average bound radioactivity from negative control wells (no agonist) is subtracted from the bound radioactivity detected for each of the other experimental wells. Second, average bound radioactivity is calculated for the positive control wells (agonist wells). Then, percent inhibition for each compound tested is calculated using the equation:
Calculated IC50 values are converted to K1 values by the Cheng-Prusoff correction (Cheng and Prusoff (1973) Biochem. Pharmacol. 22(23):3099-3108). Accordingly, the following equation: Ki=IC50/(1+[L]/EC50) is used, where [L] is the histamine concentration in the GTP binding assay, and EC50 is the concentration of histamine producing a 50% response, as determined by a dose-response analysis using concentrations of histamine ranging from 10^−10 M to 10^−6M. […]
(GTPγS is a poorly hydrolysed GTP analogue; its binding reports G protein activation.)
Usually Ki stands for the dissociation constant of the complex between target and ligand, obtained from inhibition or displacement. Take `O=C(CN1CCc2cc(-c3ccncc3)ccc2C1)N1CCN(C2CCC2)CC1` [Compound 75, 2-[2-(4-cyclobutylpiperazin-1-yl)-2-oxoethyl]-6-pyridin-4-yl-1,2,3,4-tetrahydroisoquinoline]: the Ki was < 1 µM.

For `COc1cc2c(cc1OC)CN(CC(=O)N1CCN(C3CCC3)CC1)CC2` [Compound 48, 2-[2-(4-cyclobutylpiperazin-1-yl)-2-oxoethyl]-6,7-dimethoxy-1,2,3,4-tetrahydroisoquinoline], the Ki is < 1 µM.

As to `N#Cc1ccc2c(c1)CCN(CC(=O)N1CCN(C3CCC3)CC1)C2` [Compound 69, 2-[2-(4-cyclobutylpiperazin-1-yl)-2-oxoethyl]-1,2,3,4-tetrahydroisoquinoline-6-carbonitrile], the Ki is < 1 µM.

Staying with this test, now noted: Table II "Ki", symbol *; assay of Example 7.
With `CCCC(C)Nc1ccc2c(n1)CCN(CC(=O)N1CCN(C3CCC3)CC1)C2` (stereo not shown) [Compound 657, 6-[2-(4-cyclobutylpiperazin-1-yl)-2-oxoethyl]-N-(1-methylbutyl)-5,6,7,8-tetrahydro-1,6-naphthyridin-2-amine], the Ki is < 1 µM.

Consider `CN(C)CCc1ccccc1-c1ccc2c(c1)CCN(CC(=O)N1CCN(C3CCC3)CC1)C2` [Compound 643, 2-(2-{2-[2-(4-cyclobutylpiperazin-1-yl)-2-oxoethyl]-1,2,3,4-tetrahydroisoquinolin-6-yl}phenyl)-N,N-dimethylethanamine], for which the Ki is < 1 µM.

`CN(C)CCc1ccc(-c2ccc3c(c2)CCN(CC(=O)N2CCN(C4CCC4)CC2)C3)cc1` [Compound 645, 2-(4-{2-[2-(4-cyclobutylpiperazin-1-yl)-2-oxoethyl]-1,2,3,4-tetrahydroisoquinolin-6-yl}phenyl)-N,N-dimethylethanamine]: the inhibition constant (Ki) was < 1 µM.

Still in this test, the particulars now being: Table II; "*" = Ki in assay of Example 7 less than 1 micromolar.
Consider `O=C(CN1CCc2nc(N3CCCC3)ccc2C1)N1CCN(C2CCC2)CC1` [Compound 176, 6-[2-(4-cyclobutylpiperazin-1-yl)-2-oxoethyl]-2-pyrrolidin-1-yl-5,6,7,8-tetrahydro-1,6-naphthyridine], for which the Ki is < 1 µM.

As to `O=C(CN1CCc2nc(-c3cncnc3)sc2C1)N1CCCC1CN1CCCC1` (stereo not shown) [Compound 110, 5-{2-oxo-2-[2-(pyrrolidin-1-ylmethyl)pyrrolidin-1-yl]ethyl}-2-pyrimidin-5-yl-4,5,6,7-tetrahydro[1,3] thiazolo [5,4-c]pyridine], the inhibition constant (Ki) is < 1 µM.

In the case of `CCCn1cc(-c2ccc3c(c2)CCN(CC(=O)N2CCN(C4CCC4)CC2)C3)ccc1=O` [Compound 281, 5-{2-[2-(4-cyclobutylpiperazin-1-yl)-2-oxoethyl]-1,2,3,4-tetrahydroisoquinolin-6-yl}-1-propylpyridin-2(1H)-one], the Ki was < 1 µM.

Take `CC1CCCC1N1CCN(C(=O)CN2CCc3nc(N4CCOCC4)ncc3C2)CC1` (stereo not shown) [Compound 205, 6-{2-[4-(2-methylcyclopentyl)piperazin-1-yl]-2-oxoethyl}-2-morpholin-4-yl-5,6,7,8-tetrahydropyrido[4,3-d]pyrimidine]: the Ki was < 1 µM.

Turning to `O=C(CN1CCc2nc(N3CCC(O)C3)ccc2C1)N1CCN(C2CCC2)CC1` (stereo not shown) [Compound 226, 1-{6-[2-(4-cyclobutylpiperazin-1-yl)-2-oxoethyl]-5,6,7,8-tetrahydro-1,6-naphthyridin-2-yl}pyrrolidin-3-ol], the inhibition constant (Ki) was < 1 µM.

As for `O=C(CN1CCc2c(cnn2-c2ccc(Br)cc2)C1)N1CCN(C2CCC2)CC1` [Compound 90, 1-(4-bromophenyl)-5-[2-(4-cyclobutylpiperazin-1-yl)-2-oxoethyl]-4,5,6,7-tetrahydro-1H-pyrazolo[4,3-c]pyridine], the Ki is < 1 µM.

For `O=C(CN1CCc2[nH]c(=O)ccc2C1)N1CCN(C2CCCC2)CC1` [Compound 133, 6-[2-(4-cyclopentylpiperazin-1-yl)-2-oxoethyl]-5,6,7,8-tetrahydro-1,6-naphthyridin-2(1H)-one], the Ki is < 1 µM.

Turning to `CC(=O)Cc1ccc2c(c1)CCN(CC(=O)N1CCN(C3CCC3)CC1)C2` [Compound 249, 1-{2-[2-(4-cyclobutylpiperazin-1-yl)-2-oxoethyl]-1,2,3,4-tetrahydroisoquinolin-6-yl}acetone], the Ki is < 1 µM.

On to `O=C(CN1CCc2cc(-n3ccc(C(F)(F)F)n3)ccc2C1)N1CCN2CCCCC2C1` (stereo not shown) [Compound 159, 2-({6-[3-(trifluoromethyl)-1H-pyrazol-1-yl]-3,4-dihydroisoquinolin-2(1H)-yl}acetyl)octahydro-2H-pyrido[1,2-a]pyrazine], for which the Ki was < 1 µM.

For `CC1CCC[C@H]2CN(C(=O)CN3CCc4nc(Cl)ccc4C3)CCN12` (stereo in doubt) [Compound 174, 2-chloro-6-[2-(6-methyloctahydro-2H-pyrido[1,2-a]pyrazin-2-yl)-2-oxoethyl]-5,6,7,8-tetrahydro-1,6-naphthyridine], the Ki is < 1 µM.

The same test, now with this note: Table II; assay of Example 7.
`N#Cc1cnc(-n2cc3c(n2)CCN(CC(=O)N2CCN(C4CCC4)CC2)C3)nc1` [Compound 686, 2-{5-[2-(4-cyclobutylpiperazin-1-yl)-2-oxoethyl]-4,5,6,7-tetrahydro-2H-pyrazolo[4,3-c]pyridin-2-yl}pyrimidine-5-carbonitrile]: the Ki is < 1 µM.

As for `O=C(CN1CCc2nn(C3CCOCC3)cc2C1)N1CCN(C2CCC2)CC1` [Compound 685], the inhibition constant Ki was < 1 µM.

Consider `Cc1nc(N2CCOCC2)nc2c1CN(CC(=O)N1CCN(C3CCC3)CC1)CC2` [Compound 692, 6-[2-(4-cyclobutylpiperazin-1-yl)-2-oxoethyl]-4-methyl-2-morpholin-4-yl-5,6,7,8-tetrahydropyrido[4,3-d]pyrimidine], for which the inhibition constant Ki was < 1 µM.

Staying with this test, now noted: assay of Example 7; "*" in Ki of Table II.
For the molecule `CCC(C)N1CCN(C(=O)CN2CCc3cc(-c4ccc(OC)nc4)ccc3C2)CC1` (stereo not shown) [Compound 383, 2-[2-(4-sec-butylpiperazin-1-yl)-2-oxoethyl]-6-(6-methoxypyridin-3-yl)-1,2,3,4-tetrahydroisoquinoline], the inhibition constant (Ki) is < 1 µM.

In the case of `COc1cc(-c2nc3c(s2)CN(CC(=O)N2CCN(C4CCC4)CC2)CC3)cc(OC)c1OC` [Compound 326, 5-[2-(4-cyclobutylpiperazin-1-yl)-2-oxoethyl]-2-(3,4,5-trimethoxyphenyl)-4,5,6,7-tetrahydro[1,3]thiazolo [5,4-c]pyridine], the Ki was < 1 µM.

Turning to `O=C(CN1CCc2nc(-c3cccc(OC(F)(F)F)c3)sc2C1)N1CCN(C2CCC2)CC1` [Compound 319, 5-[2-(4-cyclobutylpiperazin-1-yl)-2-oxoethyl]-2-[3-(trifluoromethoxy)phenyl]-4,5,6,7-tetrahydro[1,3]thiazolo [5,4-c]pyridine], the inhibitory constant (Ki) was < 1 µM.

As to `O=C(CN1CCc2nc(-c3ccc(Cl)c(F)c3)sc2C1)N1CCN(C2CCC2)CC1` [Compound 352, 2-(4-chloro-3-fluorophenyl)-5-[2-(4-cyclobutylpiperazin-1-yl)-2-oxoethyl]-4,5,6,7-tetrahydro[1,3]thiazolo [5,4-c]pyridine], the Ki was < 1 µM.

Take `N#Cc1ccc(-c2nc3c(s2)CN(CC(=O)N2CCN(C4CCC4)CC2)CC3)cc1` [Compound 368, 4-{5-[2-(4-cyclobutylpiperazin-1-yl)-2-oxoethyl]-4,5,6,7-tetrahydro[1,3]thiazolo [5,4-c]pyridin-2-yl}benzonitrile]: the Ki was < 1 µM.

For the molecule `COc1cccc(-c2ccc3c(c2)CCN(CC(=O)N2CCN(C4CCC4)CC2)C3)c1` [Compound 475, 2-[2-(4-cyclobutylpiperazin-1-yl)-2-oxoethyl]-6-(3-methoxyphenyl)-1,2,3,4-tetrahydroisoquinoline], the Ki is < 1 µM.
